Experimental findings from US20240374560A1, “FIBER-ENHANCED LIPOSOME AND METHODS” (Vidya Herbs, Inc., priority 2023, published 2024) are described below.

Counter-ions that a name gives are not always drawn.

What is called AUC(0-t) is the area under the concentration-time curve up to a stated or last time point. A lower AUC(0-t) goes with less exposure. A word on the Tmax: it is the time from dosing to the highest level. As a reminder, the Cmax is the highest concentration seen after dosing. The term AUC(0-inf) denotes the area under the concentration-time curve extrapolated to infinity. A lower AUC(0-inf) goes with low exposure. By MRT is commonly meant a mean duration of stay, worked out from the concentration-time curve.

Series [1] can be described thus: In vitro release study of berberine, dialysis set up. It counts as physicochemical. Particulars: after 6 h, pH 7.4.
A short description of series [2]: Pharmacokinetic study of berberine after single oral dose. It counts as in vivo, Wistar rats. The conditions noted are these: male, Wistar, berberine in rat plasma.
A short description of the next series: in vivo. Particulars: male, Wistar, rat, plasma, po, 60 mg/kg.
Series [3] in a line: Pharmacokinetics of ursolic acid after single oral dose. The conditions noted are these: ursolic acid in rat plasma.
The conditions of series [4]: after 3 h; dialysis, PBS pH 7.4, 37° C.
Protocol: The comparative in vitro release study of caffeine encapsulated in the inventive liposome versus plain caffeine (control) was performed using a dialysis set up. Prior to the diffusion experiment, the cellulose acetate dialysis membrane (Sigma Aldrich, Molecular weight cut-off (MWCO) 12 kDa) was soaked in phosphate buffered saline (PBS, pH 7.4) for 12 h. A weighed quantity of liposomal caffeine (50 mg) was suspended in 10 mL of PBS and transferred into the dialysis bag (donor compartment). The dialysis bag was placed in a beaker containing 100 mL of PBS (receptor compartment). The setup was incubated at 120 rpm for 8 h in a 37° C. shaker incubator.
A control experiment was performed simultaneously in which a plain caffeine solution was dialyzed. A 1 mL aliquot of PBS in the receptor compartment was sampled at different time points and an equal quantity of fresh PBS was replaced in the compartment after each withdrawal. The caffeine content in the samples were quantified using HPLC.
Series [5] is described as follows: In vitro release study of vitamin C, dialysis set up. It counts as physicochemical. Particulars: after 8 h, PBS pH 7.4, 37° C. As to the method:
The comparative in vitro release study of vitamin C encapsulated in the inventive liposome versus and non-encapsulated vitamin C (control) was performed using the dialysis set up. […] A weighed quantity of encapsulated vitamin C (50 mg) was suspended in 10 mL of PBS and transferred into the dialysis bag (donor compartment). […] A control experiment was performed simultaneously in which unencapsulated vitamin C solution was dialyzed. […] The absorbance of the samples was measured at 295 nm. The concentration of vitamin C in the samples was determined using a standard curve.

Series [6] in a line: In vitro release study of glutathione, dialysis set up. The format is physicochemical. Particulars: after 7 h, pH 7.4. As for the experimental part: The comparative in vitro release study of glutathione encapsulated in the inventive liposome and non-encapsulated glutathione (control) was performed using the dialysis set up. […] A control experiment was performed simultaneously in which the non-encapsulated glutathione solution was dialyzed. […] The concentration of glutathione in the samples was determined using the validated HPLC method.
The mobile phase consisted of 50 mM phosphate buffer. The injection volume was 5 μL. The detection was carried out at 230 nm.

Series [7] in a line: Comparative oral bioavailability of vitamin C, crossover study in healthy volunteers. The conditions noted are these: human, in vivo. As to the method: The inventive liposome comprised at least 40% w/w Vitamin C.
A group of 12 healthy volunteers were screened on Visit 1 to confirm their eligibility. Subjects fulfilling the eligibility criteria were randomized into 1 of 2-treatment sequences on Visit 2. There was a washout period of 7 days each between the 2 dosing days. […] Subjects returned to the study center for the second period. On the morning of Day 1, in each period, subjects in a fasting state (at least 10 hours before dosing) received one 600 mg capsule orally of their assigned formulation (Table 2) as per randomization scheme, with 200±2 mL of water at room temperature. The study duration was approximately 12 days (2 dosing days and 1 washout period of 7±1 days). A total of 10 blood samples were collected in each of the two study periods. The pre-dose samples (2 mL) were collected within 1 hour before dosing. The post-dose samples (1×2 mL) were collected at 30 min, 60 min, 2, 3, 4, 5, 6, 8 and 12 hours after dosing in vacuum tubes containing K2 EDTA. All blood samples were collected from an ante-cubital vein or any suitable forearm vein using an indwelling cannula. Before each blood sample is drawn, 1 mL of blood was discarded so as to prevent the saline diluted blood and heparin from interfering with the analysis.
Plasma concentrations were measured using ultra performance liquid chromatographyelectrospray ionization-tandem mass spectrometry (UPLC-ESI-MS/MS), gas chromatography mass spectrometry (GC-MS/MS) and High-Performance Liquid Chromatography (HPLC). All the pharmacokinetic parameters were compared between the two treatment groups using Pair-t-test with 5% level of significance. All statistical analysis was performed using R statistical software version 4.2.1.

With `COc1ccc2cc3[n+](cc2c1OC)CCc1cc2c(cc1-3)OCO2` [Control (Unformulated), berberine HCl], the “berberine cumulative release %” value in series [1] is 100%. In series [2] (320 mg/kg, single oral dose), the area under the curve AUC(0-t) is 410 ± 40 ng·h/mL and the time to peak (Tmax) stood at 0.25 h. In series [2] (320 mg/kg, single oral dose, read-out: t½ (converted)), the half-life was 7.32 ± 0.61 h. Further, the peak level in series [2] (single oral dose (600 mg/kg encapsulated; 320 mg/kg berberine HCl)) (Cmax) was 15.5 ± 9.66 ng/mL.
For the compound `C[C@H]1[C@H](C)CC[C@]2(C(=O)O)CC[C@]3(C)C(=CC[C@@H]4[C@@]5(C)CC[C@H](O)C(C)(C)[C@@H]5CC[C@]43C)[C@H]12` [Control, ursolic acid], in “in vivo”, the area under the curve AUC(0-t) is 877 ± 44.6 ng·h/mL, the peak level (Cmax) was 201 ± 42.4 ng/mL, the Tmax is 0.75 ± 0.35 h and the half-life was 4.49 ± 0.11 h. In addition, in series [3], the Kel was found to be 0.15 ± 0.004 h⁻¹ and the “maximum plasma concentration of UA” value came out at 201 ± 42.43 ng/mL. Further, the Kel in series [3] (listed as control) is 0.15 ± 0.004 h⁻¹. Besides, the caffeine released in series [4] is 100%. The “vitamin C released” value in series [5] turned out to be 67.54%.
With `N[C@@H](CCC(=O)N[C@@H](CS)C(=O)NCC(=O)O)C(=O)O` [non-encapsulated glutathione, glutathione], in series [6], the “glutathione cumulative release %” value stood at 96.86%.
`O=C1O[C@H]([C@@H](O)CO)C(O)=C1O` [unformulated Vitamin C, vitamin C] had an AUC(0-inf) in series [7] of 6260 ± 4560 ng·h/mL. In addition, the AUC(0-t) in series [7] turned out to be 4130 ± 1740 ng·h/mL. In series [7], this compound gave a maximum concentration (Cmax) of 970 ng/mL. In series [7], this compound yielded an MRT of 9.3 ± 8.42 h. In addition, the time of peak concentration (Tmax) in series [7] turned out to be 2.67 ± 1.07 h. The “Plasma concentration of vitamin C, Mean” value in series [7] (0.5 h) amounted to 219.99; in series [7] (1 h), 502.39; in series [7] (2 h) it was 728.44; in series [7] (3 h), 680.46; in series [7] (4 h), 456.28; in series [7] (5 h), 405.53. In addition, the figures for the “Plasma concentration of vitamin C, Mean” value in series [7] (6 h), in series [7] (8 h) and in series [7] (12 h) were 338.54, 219.14 and 162.08, respectively.
